Measurements: PubChem BioAssay AID1963875 (Molecular Pharmacology Branch, DTP, NCI, 2024)
pIC50: −log10 of the molar value.

Tested on: KRAS-mutant PDC complex spheroid viability
Test: Anticancer human tumor 186277-243-T-J2-PDC patient-derived colon adenocarcinoma cell line growth inhibition [KRAS2]
Settings: for pIC50: curve of first compound; for viability, T/C: stronger effect = lower value
In short: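 KRAS-mutant tumor cells were grown as spheroids with HUVEC endothelial cells and human MSCs as stroma. Targeted agents were tested alone and with KRAS pathway inhibitors. Doses started at or near clinical Cmax, or 10 microM, descending half-log.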

[1] = second compound 0.1 µM, first compound 0.0316 µM
[2] = second compound 0.1 µM, first compound 0.1 µM
[3] = second compound 0.316 µM, first compound 0.0316 µM
[4] = second compound 0.316 µM, first compound 0.1 µM
[5] = second compound 1 µM, first compound 0.0316 µM
[6] = second compound 1 µM, first compound 0.1 µM
[7] = second compound 3.16 µM, first compound 0.0316 µM
[8] = second compound 3.16 µM, first compound 0.1 µM
[9] = second compound 10 µM, first compound 0.0316 µM
[10] = second compound 10 µM, first compound 0.1 µM
[11] = second compound 0.1 µM, first compound 0.000316 µM
[12] = second compound 0.1 µM, first compound 0.001 µM
[13] = second compound 0.1 µM, first compound 0.00316 µM
[14] = second compound 0.1 µM, first compound 0.01 µM
[15] = second compound 0.316 µM, first compound 0.000316 µM
[16] = second compound 0.316 µM, first compound 0.001 µM
[17] = second compound 0.316 µM, first compound 0.00316 µM
[18] = second compound 0.316 µM, first compound 0.01 µM
[19] = second compound 1 µM, first compound 0.000316 µM
[20] = second compound 1 µM, first compound 0.001 µM
[21] = second compound 1 µM, first compound 0.00316 µM
[22] = second compound 1 µM, first compound 0.01 µM
[23] = second compound 3.16 µM, first compound 0.000316 µM
[24] = second compound 3.16 µM, first compound 0.001 µM
[25] = second compound 3.16 µM, first compound 0.00316 µM
[26] = second compound 3.16 µM, first compound 0.01 µM
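For viability, T/C in this document: viability read after seven days of compound exposure; 100% = DMSO vehicle-treated spheroids so lower means less viable.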

Compound: COc1cc(Nc2ncc3c(n2)-c2ccc(Cl)cc2C(c2c(F)cccc2OC)=NC3)ccc1C(=O)O + CNCc1ccccc1-c1csc(C(C)Nc2nc(C)nc3cc(OC)c(OC)cc23)c1
- pIC50 (second compound 0.1 µM): > 7.50
- pIC50 (second compound 0.316 µM): > 7.50
- pIC50 (second compound 1 µM): > 7.50
- pIC50 (second compound 3.16 µM): > 7.50
- pIC50 (second compound 10 µM): > 7.50
- viability, T/C [1]: 35.7%
- viability, T/C [2]: 32.4%
- viability, T/C (second compound 0.1 µM, first compound 0.316 µM): 29.4%
- viability, T/C (second compound 0.1 µM, first compound 1 µM): 34.1%
- viability, T/C (second compound 0.1 µM, first compound 3.16 µM): 44.2%
- viability, T/C (second compound 0.1 µM, first compound 10 µM): 43.8%
- viability, T/C [3]: 32.8%
- viability, T/C [4]: 27.8%
- viability, T/C (second compound 0.316 µM, first compound 0.316 µM): 28.8%
- viability, T/C (second compound 0.316 µM, first compound 1 µM): 29.7%
- viability, T/C (second compound 0.316 µM, first compound 3.16 µM): 38.3%
- viability, T/C (second compound 0.316 µM, first compound 10 µM): 40.8%
- viability, T/C [5]: 30.1%
- viability, T/C [6]: 31.6%
- viability, T/C (second compound 1 µM, first compound 0.316 µM): 25.9%
- viability, T/C (second compound 1 µM, first compound 1 µM): 30.7%
- viability, T/C (second compound 1 µM, first compound 3.16 µM): 35%
- viability, T/C (second compound 1 µM, first compound 10 µM): 35.9%
- viability, T/C [7]: 4.28%
- viability, T/C [8]: 5.85%
- viability, T/C (second compound 3.16 µM, first compound 0.316 µM): 4.27%
- viability, T/C (second compound 3.16 µM, first compound 1 µM): 3.03%
- viability, T/C (second compound 3.16 µM, first compound 3.16 µM): 0.28%
- viability, T/C (second compound 3.16 µM, first compound 10 µM): 0.7%
- viability, T/C [9]: 0.12%
- viability, T/C [10]: 0.11%
- viability, T/C (second compound 10 µM, first compound 0.316 µM): 0.12%
- viability, T/C (second compound 10 µM, first compound 1 µM): 0.15%
- viability, T/C (second compound 10 µM, first compound 3.16 µM): 0.11%
- viability, T/C (second compound 10 µM, first compound 10 µM): 0.19%

Compound: Cn1ncnc1[C@H]1c2n[nH]c(=O)c3cc(F)cc(c23)N[C@@H]1c1ccc(F)cc1 + CC1OCC2(CCN(c3cnc(Sc4ccnc(N)c4Cl)c(N)n3)CC2)C1N
- pIC50 (second compound 0.1 µM): < 7.00
- pIC50 (second compound 0.316 µM): < 7.00
- pIC50 (second compound 1 µM): 7.05
- pIC50 (second compound 3.16 µM): 7.73
- pIC50 (second compound 10 µM): 8.38
- viability, T/C [11]: 107%
- viability, T/C [12]: 116%
- viability, T/C [13]: 110%
- viability, T/C [14]: 90.5%
- viability, T/C [1]: 84.2%
- viability, T/C [2]: 62.3%
- viability, T/C [15]: 126%
- viability, T/C [16]: 120%
- viability, T/C [17]: 104%
- viability, T/C [18]: 84.3%
- viability, T/C [3]: 76.8%
- viability, T/C [4]: 58.1%
- viability, T/C [19]: 119%
- viability, T/C [20]: 103%
- viability, T/C [21]: 89.4%
- viability, T/C [22]: 71.4%
- viability, T/C [5]: 62.4%
- viability, T/C [6]: 50.6%
- viability, T/C [23]: 81.9%
- viability, T/C [24]: 85.6%
- viability, T/C [25]: 76.3%
- viability, T/C [26]: 60.2%
- viability, T/C [7]: 41.5%
- viability, T/C [8]: 36%
- viability, T/C (second compound 10 µM, first compound 0.000316 µM): 66.7%
- viability, T/C (second compound 10 µM, first compound 0.001 µM): 68.4%
- viability, T/C (second compound 10 µM, first compound 0.00316 µM): 49.4%
- viability, T/C (second compound 10 µM, first compound 0.01 µM): 41.3%
- viability, T/C [9]: 31.5%
- viability, T/C [10]: 25.4%

Compound: CC(=O)Nc1cccc(-n2c(=O)n(C3CC3)c(=O)c3c(Nc4ccc(I)cc4F)n(C)c(=O)c(C)c32)c1 + C=CC(=O)N1CCN(c2nc(OCC3CCCN3C)nc3c2CCN(c2cccc4cccc(C)c24)C3)CC1CC#N
- pIC50 (second compound 0.0316 µM): 9.13
- pIC50 (second compound 0.1 µM): 9.18
- pIC50 (second compound 0.316 µM): 9.17
- pIC50 (second compound 1 µM): 9.32
- pIC50 (second compound 3.16 µM): > 10.00
- viability, T/C (second compound 0.0316 µM, first compound 0.0001 µM): 98.2%
- viability, T/C (second compound 0.0316 µM, first compound 0.000316 µM): 115%
- viability, T/C (second compound 0.0316 µM, first compound 0.001 µM): 30.9%
- viability, T/C (second compound 0.0316 µM, first compound 0.00316 µM): 7.61%
- viability, T/C (second compound 0.0316 µM, first compound 0.01 µM): 2.46%
- viability, T/C (second compound 0.0316 µM, first compound 0.0316 µM): 1.21%
- viability, T/C (second compound 0.1 µM, first compound 0.0001 µM): 88.8%
- viability, T/C [11]: 103%
- viability, T/C [12]: 25.1%
- viability, T/C [13]: 6.76%
- viability, T/C [14]: 2.36%
- viability, T/C [1]: 1.26%
- viability, T/C (second compound 0.316 µM, first compound 0.0001 µM): 103%
- viability, T/C [15]: 99%
- viability, T/C [16]: 23.8%
- viability, T/C [17]: 5.26%
- viability, T/C [18]: 2.18%
- viability, T/C [3]: 1.26%
- viability, T/C (second compound 1 µM, first compound 0.0001 µM): 105%
- viability, T/C [19]: 74%
- viability, T/C [20]: 8.66%
- viability, T/C [21]: 2.88%
- viability, T/C [22]: 1.12%
- viability, T/C [5]: 0.75%
- viability, T/C (second compound 3.16 µM, first compound 0.0001 µM): 0.32%
- viability, T/C [23]: 0.18%
- viability, T/C [24]: 0.13%
- viability, T/C [25]: 0.12%
- viability, T/C [26]: 0.11%
- viability, T/C [7]: 0.19%
